# Data reported in US7338948B2, “Use of quetiapine” (AstraZeneca AB, priority 2000, dated 2008).
# Columns and labels:
# [1] = system: Conduct Disorder, Childhood Onset, Moderate Severity and Attention Deficit Hyperactivity Disorder (ADHD), Combined Type; experiment: Case report: patient with Conduct Disorder and ADHD treated with successive drugs
# From the text: A person was diagnosed with ‘Conduct Disorder, Childhood Onset, Moderate Severity’ and ‘Attention Deficit Hyperactivity Disorder (ADHD), Combined Type’ (DSM-IV diagnostic criteria).
# [2] = Drug level printed in brackets after the dose in the case report; settings: valproate 750 mg
# Protocol: In addition, they were given lithium at gradually increasing doses up to 1125 mg/day (1.7 ng/mL).
structure (smiles),measurement,setting,value
"OCCOCCN1CCN(C2=Nc3ccccc3Sc3ccccc32)CC1 [Quetiapine, 11-(4-[2-(2-hydroxyethoxy)ethyl]-1-piperazinyl)dibenzo[b,f][1.4]thiazepine]",clinical response after 90 days,[1]; after 90 days on quetiapine 1000 mg/day and amphetamine-based product 45 mg/day,complete resolution of previous symptoms
same,clinical response (psychiatric symptoms),"[1]; quetiapine 1000 mg/day (400 mg morning, 600 mg evening) with amphetamine-based product 45 mg/day",dramatic reduction of their psychiatric symptoms
same,clinical response (aggression),"[1]; quetiapine increased from 50 to 300 mg/day, with amphetamine-based product 60 mg/day",continued to demonstrate aggression
CCCC(CCC)C(=O)O [Valproate],drug level,[2],115 ng/mL
COC(=O)C(c1ccccc1)C1CCCCN1 (centres unmarked) [methylphenidate],clinical response (earlier treatment),[1]; methylphenidate taken before the amphetamine-based product and imipramine,eventually became ineffective
